One assay has as its target adenosine A2B receptor (Homo sapiens (Human), UniProt P29275). Briefly: Adenosine receptor activity assay (Table 1), A2B activity. It is filed as biochemical. As to conditions: for Ratio: A2A activity to A2B activity (A2A/A2B); for IC50: read-out: Ave A2B cAMP IC50.
For the next assay, the target named is adenosine A2A receptor (Homo sapiens (Human), UniProt P29274). Briefly: Adenosine receptor activity assay (Table 1), A2A activity. It is filed as biochemical. As to conditions: read-out: Ave A2A cAMP IC50.

Molecules are shown by their SMILES.

Sequence of adenosine A2B receptor (P29275 whole entry): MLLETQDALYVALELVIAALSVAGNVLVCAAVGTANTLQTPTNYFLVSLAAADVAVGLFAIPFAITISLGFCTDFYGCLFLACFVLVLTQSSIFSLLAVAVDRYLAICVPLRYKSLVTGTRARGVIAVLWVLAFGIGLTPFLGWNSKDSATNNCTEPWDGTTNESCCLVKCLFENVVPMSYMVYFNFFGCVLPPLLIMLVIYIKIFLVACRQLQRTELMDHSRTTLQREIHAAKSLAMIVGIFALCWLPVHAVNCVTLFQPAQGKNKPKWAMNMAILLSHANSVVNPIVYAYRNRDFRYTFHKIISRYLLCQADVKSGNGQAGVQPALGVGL
Sequence of adenosine A2A receptor (P29274 whole entry): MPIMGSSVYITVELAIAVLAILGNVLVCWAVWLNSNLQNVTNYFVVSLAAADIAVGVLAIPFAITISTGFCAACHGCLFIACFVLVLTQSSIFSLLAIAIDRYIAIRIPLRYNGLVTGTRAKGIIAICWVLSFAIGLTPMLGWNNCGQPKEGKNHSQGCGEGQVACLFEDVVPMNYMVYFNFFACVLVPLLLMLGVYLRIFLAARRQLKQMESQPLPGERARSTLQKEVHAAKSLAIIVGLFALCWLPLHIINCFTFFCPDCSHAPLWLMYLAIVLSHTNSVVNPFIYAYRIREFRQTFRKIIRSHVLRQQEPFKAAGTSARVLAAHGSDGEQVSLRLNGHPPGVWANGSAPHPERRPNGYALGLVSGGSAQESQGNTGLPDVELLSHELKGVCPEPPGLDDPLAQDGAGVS

The IC50 is the point on the concentration scale where inhibition reaches its midpoint. Turning to `C[C@H](Nc1nc(C(=O)N2CCN(CCCc3ccccc3)CC2)c2sccc2n1)c1cccnc1` [Example Z69, (S)-(4-(3-Phenylpropyl)piperazin-1-yl)(2-((1-(pyridin-3-yl)ethyl)amino)thieno[3,2-d]pyrimidin-4-yl)methanone], the Ratio at adenosine A2B receptor worked out at 0.92. Further, the IC50 at adenosine A2B receptor and at adenosine A2A receptor was greater than 500 nM each time.
`O=C(c1nc(NCc2cccc(O)n2)nc2ccsc12)N1CCCC1` [Example Z70, (2-(((6-Hydroxypyridin-2-yl)methyl)amino)thieno[3,2-d]pyrimidin-4-yl)(pyrrolidin-1-yl)methanone]: at adenosine A2B receptor, the Ratio was 10.89 and the IC50 was in the range of 50 to 100 nM. In addition, at adenosine A2A receptor, the IC50 is greater than 500 nM.
The matching figures for `O=C(c1nc(NCc2cccc(F)n2)nc2ccsc12)N1CCCC1` [Example Z71, (2-(((6-Fluoropyridin-2-yl)methyl)amino)thieno[3,2-d]pyrimidin-4-yl)(pyrrolidin-1-yl)methanone]: 12.97, 50 to 100 nM and greater than 500 nM.
Regarding `O=C(NCc1ccc(C(F)(F)F)nc1)c1nc(NCc2ccc(C(F)(F)F)nc2)nc2ccsc12` [Example Z72, N-((6-(Trifluoromethyl)pyridin-3-yl)methyl)-2-(((6-(trifluoromethyl)pyridin-3-yl)methyl)amino)thieno[3,2-d]pyrimidine-4-carboxamide], on adenosine A2B receptor, the Ratio is recorded as 1.00 and the half-inhibitory concentration (IC50) was greater than 500 nM. At adenosine A2A receptor, the IC50 was greater than 500 nM.
On to `O=C(NCc1cccc(F)c1)c1nc(NCc2cccc(F)c2)nc2ccsc12` [Example Z74, N-(3-Fluorobenzyl)-2-((3-fluorobenzyl)amino)thieno[3,2-d]pyrimidine-4-carboxamide], for which, on adenosine A2B receptor, the Ratio amounted to 1.74 and the IC50 is 100 to 500 nM. Further, the IC50 at adenosine A2A receptor was 100 to 500 nM.
For `O=C(c1nc(NCc2ccc(C(F)(F)F)nc2)nc2ccsc12)N1CC[C@H](O)C1` [Example Z75, (S)-(3-Hydroxypyrrolidin-1-yl)(2-(((6-(trifluoromethyl)pyridin-3-yl)methyl)amino)thieno[3,2-d]pyrimidin-4-yl)methanone], at adenosine A2B receptor, the Ratio is 1.00 and the IC50 was greater than 500 nM. Further, at adenosine A2A receptor, the IC50 is greater than 500 nM.
`O=C(c1nc(NCc2ccc(C(F)(F)F)nc2)nc2ccsc12)N1CCCC1` [Example Z76, Pyrrolidin-1-yl(2-(((6-(trifluoromethyl)pyridin-3-yl)methyl)amino)thieno[3,2-d]pyrimidin-4-yl)methanone]: the Ratio on adenosine A2B receptor was determined as 0.22. The IC50 was greater than 500 nM at adenosine A2B receptor and 100 to 500 nM at adenosine A2A receptor.
For `CC(CNC(=O)c1nc(N[C@@H](C)c2ccccn2)nc2ccsc12)Oc1cccnc1` (stereo partly drawn) [Example Z77, 2-(((S)-1-(Pyridin-2-yl)ethyl)amino)-N-(2-(pyridin-3-yloxy)propyl)thieno[3,2-d]pyrimidine-4-carboxamide], on adenosine A2B receptor, the Ratio is listed as 3.77 and the IC50 lay in the range of 100 to 500 nM. In addition, the IC50 on adenosine A2A receptor fell in the range of 100 to 500 nM.
Regarding `O=C(NCc1ccccn1)c1nc(NCc2ccccn2)nc2ccsc12` [Example Z78, N-(Pyridin-2-ylmethyl)-2-((pyridin-2-ylmethyl)amino)thieno[3,2-d]pyrimidine-4-carboxamide], on adenosine A2B receptor, the Ratio was 2.02 and the IC50 fell in the range of 50 to 100 nM. On adenosine A2A receptor, the IC50 lay in the range of 100 to 500 nM.
The like results for `C[C@H](Nc1nc(C(=O)NCc2ccc(C(F)(F)F)nc2)c2sccc2n1)c1ccccn1` [Example Z79, (S)-2-((1-(Pyridin-2-yl)ethyl)amino)-N-((6-(trifluoromethyl)pyridin-3-yl)methyl)thieno[3,2-d]pyrimidine-4-carboxamide] were, in that order, 1.20, 50 to 100 nM and 100 to 500 nM.
The matching figures for `O=C(c1nc(NCc2cccc(F)c2)nc2ccsc12)N1CCN(CCCc2ccccc2)CC1` [Example Z80, (2-((3-Fluorobenzyl)amino)thieno[3,2-d]pyrimidin-4-yl)(4-(3-phenylpropyl)piperazin-1-yl)methanone]: 1.00, greater than 500 nM and greater than 500 nM.
The matching figures for `O=C(c1nc(NCc2cccc(F)c2)nc2ccsc12)N1CC[C@@H](O)C1` [Example Z81, (R)-(2-((3-Fluorobenzyl)amino)thieno[3,2-d]pyrimidin-4-yl)(3-hydroxypyrrolidin-1-yl)methanone]: 2.77, 50 to 100 nM and 100 to 500 nM.
`COc1ccc(CNC(=O)c2nc(NCc3cccc(F)c3)nc3ccsc23)cn1` [Example Z82, 2-((3-Fluorobenzyl)amino)-N-((6-methoxypyridin-3-yl)methyl)thieno[3,2-d]pyrimidine-4-carboxamide]: at adenosine A2B receptor, the Ratio was found to be 1.03. In addition, the IC50 at adenosine A2B receptor and on adenosine A2A receptor was 50 to 100 nM throughout.
Turning to `O=C(NCCn1ccnc1)c1nc(NCc2cncc(F)c2)nc2ccsc12` [Example Z85, N-(2-(1H-Imidazol-1-yl)ethyl)-2-(((5-fluoropyridin-3-yl)methyl)amino)thieno[3,2-d]pyrimidine-4-carboxamide], on adenosine A2B receptor, the Ratio worked out at 1.04. Besides, the IC50 at adenosine A2B receptor and on adenosine A2A receptor was greater than 500 nM each time.
As to `Cc1ncccc1CNC(=O)c1nc(NCc2cccnc2C)nc2ccsc12` [Example Z88, N-((2-Methylpyridin-3-yl)methyl)-2-(((2-methylpyridin-3-yl)methyl)amino)thieno[3,2-d]pyrimidine-4-carboxamide], at adenosine A2B receptor, the Ratio was found to be 1.00 and the IC50 is greater than 500 nM. In addition, the IC50 on adenosine A2A receptor was greater than 500 nM.
For the compound `COc1ccc(CNC(=O)c2nc(NCc3cccnc3C)nc3ccsc23)cn1` [Example Z94, N-((6-Methoxypyridin-3-yl)methyl)-2-(((2-methylpyridin-3-yl)methyl)amino)thieno[3,2-d]pyrimidine-4-carboxamide], at adenosine A2B receptor, the Ratio came out at 1.00 and the IC50 is 100 to 500 nM. Also, the IC50 on adenosine A2A receptor was in the range of 100 to 500 nM.
Regarding `CC1(O)CN(C(=O)c2nc(NCc3cncc(F)c3)nc3ccsc23)C1` [Example Z98, (2-(((5-Fluoropyridin-3-yl)methyl)amino)thieno[3,2-d]pyrimidin-4-yl)(3-hydroxy-3-methylazetidin-1-yl)methanone], the Ratio at adenosine A2B receptor came to 22.37. Further, the values for the IC50 on adenosine A2B receptor and at adenosine A2A receptor were 10 to 50 nM and greater than 500 nM, respectively.
Consider `C[C@H](Nc1nc(C(=O)N2CC(C)(O)C2)c2sccc2n1)c1ccccn1` [Example Z101, (S)-(3-Hydroxy-3-methylazetidin-1-yl)(2-((1-(pyridin-2-yl)ethyl)amino)thieno[3,2-d]pyrimidin-4-yl)methanone], for which the IC50 at adenosine A2B receptor lay within 10 to 50 nM; on adenosine A2A receptor, 100 to 500 nM.
Consider `C[C@H](Nc1nc(C(=O)NCc2cncc(C#N)c2)c2sccc2n1)c1ccccn1` [Example Z102, (S)—N-((5-Cyanopyridin-3-yl)methyl)-2-((1-(pyridin-2-yl)ethyl)amino)thieno[3,2-d]pyrimidine-4-carboxamide], for which, on adenosine A2B receptor, the Ratio is 2.24 and the IC50 lay within 100 to 500 nM. Besides, the IC50 on adenosine A2A receptor is 100 to 500 nM.
As to `O=C(c1nc(NCc2cccnc2)nc2ccsc12)N1CC[C@@H](O)C1` [Example Z103, (R)-(3-Hydroxypyrrolidin-1-yl)(2-((pyridin-3-ylmethyl)amino)thieno[3,2-d]pyrimidin-4-yl)methanone], the Ratio at adenosine A2B receptor was determined as 3.68. Further, the IC50 at adenosine A2B receptor is 100 to 500 nM; at adenosine A2A receptor it was greater than 500 nM.
Consider `C[C@H](Nc1nc(C(=O)NCc2cncc(C#N)c2)c2sccc2n1)c1cccnc1` [Example Z104, (S)—N-((5-Cyanopyridin-3-yl)methyl)-2-((1-(pyridin-3-yl)ethyl)amino)thieno[3,2-d]pyrimidine-4-carboxamide], for which, on adenosine A2B receptor, the Ratio worked out at 0.50 and the IC50 is greater than 500 nM. Further, the IC50 at adenosine A2A receptor lay in the range of 100 to 500 nM.
The like results for `C[C@H](Nc1nc(C(=O)NCCO)c2sccc2n1)c1ccccn1` [Example Z106, (S)—N-(2-hydroxyethyl)-2-((1-(pyridin-2-yl)ethyl)amino)thieno[3,2-d]pyrimidine-4-carboxamide] were, in that order, 2.95, 10 to 50 nM and 100 to 500 nM.
The like results for `CC(C)(Nc1nc(C(=O)N2CCCC2)c2sccc2n1)c1cccnc1` [Example Z112, (2-((2-(Pyridin-3-yl)propan-2-yl)amino)thieno[3,2-d]pyrimidin-4-yl)(pyrrolidin-1-yl)methanone] were, in that order, 7.09, 100 to 500 nM and greater than 500 nM.
The matching figures for `COc1cncc(CNc2nc(C(=O)N3CCCC3)c3sccc3n2)c1` [Example Z114, (2-(((5-Methoxypyridin-3-yl)methyl)amino)thieno[3,2-d]pyrimidin-4-yl)(pyrrolidin-1-yl)methanone]: 5.15, 100 to 500 nM and greater than 500 nM.
On to `COc1cncc(CNc2nc(C(=O)N3CCC3)c3sccc3n2)c1` [Example Z116, Azetidin-1-yl(2-(((5-methoxypyridin-3-yl)methyl)amino)thieno[3,2-d]pyrimidin-4-yl)methanone], for which, on adenosine A2B receptor, the Ratio turned out to be 4.17 and the IC50 was in the range of 100 to 500 nM. Further, the IC50 on adenosine A2A receptor is greater than 500 nM.
The like results for `COc1cncc(CNc2nc(C(=O)N3CC(C)C3)c3sccc3n2)c1` [Example Z117, (2-(((5-Methoxypyridin-3-yl)methyl)amino)thieno[3,2-d]pyrimidin-4-yl)(3-methylazetidin-1-yl)methanone] were, in that order, 10.87, 50 to 100 nM and greater than 500 nM.
The like results for `O=C(c1nc(NCc2cccc(Cl)c2)nc2ccsc12)N1CC[C@@H](O)C1` [Example Z118, (R)-(2-((3-Chlorobenzyl)amino)thieno[3,2-d]pyrimidin-4-yl)(3-hydroxypyrrolidin-1-yl)methanone] were, in that order, 13.75, 50 to 100 nM and greater than 500 nM.
